Experimental data taken from patent publication US10688031B2, “Low-toxicity sophorolipid-containing composition and use therefor” (Saraya Co., Ltd., priority 2013, dated 2020).

Assays:
HeLa cells = experiment: Cytotoxicity test using HeLa cells (MTT assay); format: cell-based, human; conditions: 48 hours of treatment
Procedure: HeLa cells (Kurabo Industries, Ltd.) were seeded in a 96-well plate to a concentration of 2×10^4 cells/well and cultured in Dulbecco's Modified Eagle Medium (produced by Nissui Pharmaceutical Co., Ltd.) containing 10% NCS (Newborn Calf Serum: produced by Invitrogen), non-essential amino acids, 58 μg/ml L-glutamic acid, 60 μg/ml kanamycin at 37° C., 5% CO2 for 72 hours. The medium was replaced with media containing the samples. After 48 hours, each medium was replaced with a medium containing 1 mg/ml MTT (3-(4,5-dimethyl-2-thiazolyl)-2,5-diphenyl-2H-tetrazolium bromide). After the treatment was allowed to proceed for 2 hours, formazan dye was extracted with isopropanol. Absorbance at a wavelength of 570 nm was measured. The viability % of the cells was calculated according to the following Formula.
The cell viability was calculated from the above MTT assay, and the cell lethal concentration (IC50) was determined from the obtained cell viability.

[1] = Critical micelle concentration (CMC) and surface tension-reducing ability, Wilhelmy method; format: physicochemical
Procedure: The critical micelle concentration (CMC) and surface tension-reducing ability were measured according to the Wilhelmy method. The measurements were performed at pH 7 at 20° C. using a CBVP-Z automatic surface tensiometer (produced by Kyowa Interface Science Co., Ltd.). For pH adjustment, an aqueous sodium hydroxide solution or an aqueous hydrochloric acid solution was used.
The critical micelle concentration (CMC) and surface tension-reducing ability of these SL-containing compositions were measured, and their performance as surfactants (wettability, solubilizing power, detergency, and foamability) was evaluated. The critical micelle concentration (CMC) and surface tension-reducing ability were measured in the same manner as in Test Example 2 according to the Wilhelmy method. Specifically, the measurement was performed at pH 7 at 20° C. using a CBVP-Z automatic surface tensiometer (produced by Kyowa Interface Science Co., Ltd.).

SMILES	cell lethal concentration (IC50) (HeLa cells)	CMC ([1]; Table 5, repeated from Test Example 2)	Critical micelle concentration (CMC) ([1]; pH 7, 20° C., Table 4)	Surface tension-reducing ability ([1]; pH 7, 20° C., Table 4)
CCCCCCCC/C=C\CCCCCCCC(=O)O [oleic acid]	300 ppm	–	–	–
CCCCCCCCCCCCOS(=O)(=O)[O-].[Na+] [SLS, Sodium Lauryl Sulfate]	<10 ppm	300 ppm	300 ppm	34.0 mN/m
